Laboratory results: US20260234159A1, “SMALL MOLECULE TREATMENT OF FATTY LIVER DISEASE AND HCC” (SCANDIEDGE THERAPEUTICS AB, priority 2023, published 2026)

Assays:
[1] = system: p21; test: Nuclear protein western blot, p21; format: cell-based, human; settings: 10 μM, 2 days
Method: HepG2 cells were seeded into a 6-well plate at 400,000 cells per well. After treatment with 10 μM of JNK-IN-5A and its derivatives for two days, lysates were harvested with CelLytic M (C2978, Sigma-Aldrich). 20 μg lysate was prepared with 2× Laemmli Sample Buffer (1610737, Biorad). SDS PAGE were performed using Mini-PROTEAN® TGX™ Precast Gels (Bio-Rad) and transferred using Trans-Blot® Turbo™ Transfer System (Bio-Rad). Primary antibody, PARP (95425, Cell signalling), Caspase 3 (ab32042, abcam), Bcl-2 (ab182858), STAT1 (HPA000982, Merk), PKL (06653, Sigma), PKM (4053S, Cell signalling), GAPDH (ab8245, abcam), P53 (ab32389, abcam), p21 (ab109199, abcam), p-S349 p62 (ab211324, abcam), p62 (ab109012, abcam), c-Myc (ab32072, abcam), GPX4 (ab125066, abcam), MMP9 (MA5-32705, Invitrogen), β-actin (ab8227, abcam), and α-tubulin (ab7291, abcam) were blotted overnight and Goat Anti-Rabbit HRP (ab205718) and goat anti-mouse IgG-HRP (sc2005, Santa Cruz Biotechnology, Inc.) were blotted for secondary antibody for one hour. ImageQuantTMLAS 500 (29-0050-63, GE) was used to detect protein bands.

[2] = In vivo biosafety study in rats: histopathological and immunohistochemical examination; design: species or system Sprague Dawley male rats; settings: 30 mg/kg, seven days
Method: In vivo biosafety studies. Healthy Sprague Dawley male rats (12 weeks old, 250-280 g) were obtained from Atatürk University Experimental Research Center ([…] Turkey) and housed under standard environmental conditions (temperature 20° C.-25° C., humidity 50±20% and 12-hour light/dark diurnal cycle). Food and water were available ad libitum. Rats were randomly separated into one control group and two experimental groups (30 mg/kg/day BX-912 or JNK-IN-5A, n=5). […] The control group were received the same amount of vehicle solution only. After 7 days, rats were anaesthetized, and blood samples were collected from the abdominal aorta for biochemical and haematological analysis. The plasma was separated and stored at -80° C. for further analysis. Major organs such as heart, kidney, liver, muscle, adipose, intestine (duodenum, ileum, jejunum), pancreas, colon, and stomach were collected from all the animals for further analysis. Selected organs were fixed in 10% neutral buffered formalin for histopathological examination. Histopathological examination. […] Immunohistochemical examination. […] Slides were counter stained with hematoxylin.

[3] = system: HepG2 cells; test: Autophagy assay; format: cell-based, human; settings: 10 μM, one day
Method: HepG2 cells were seeded into a 6-well plate at 400,000 cells per well. After treatment with the compounds at desired concentration and time, TMRE (ab113852, abcam), Autophagy (ab139484, abcam), ROS (ab113851, abcam), and Lipid peroxidation (ab243377, abcam) assay were performed according to manufacturer's instructions. Fluorescence images were taken using ZOE™ Fluorescent Cell Imager (Biorad) and ROI of fluorescence intensity was measured and calculated by Image J. For microplate reader florescence assay, 40,000 of HepG2 cells were seeded into a 96-well plate and triplicated. GFP (Ex480 nm, Em530 nm) and RFP (Ex549 nm, Em574 nm) were measured using a microplate reader (Hidex Sense Meta Plus).

[4] = system: HepG2 cells; test: MTT cell viability after one week steatosis (ranking of target molecules); format: cell-based, human
Method in brief: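 HepG2 cells, 60,000 per well, kept one week in steatosis medium (high-glucose DMEM, 10 μg/ml insulin, 10 μM T0901317) with 10 μM compound. Medium changed at day 0, 3 and 5. Viability measured by MTT.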

SMILES | p21 nuclear localization [1] | histological structures of major organs [2] | side effects on the rats [2] | 8-OH-dG expression in liver tissues ([2]; IHC) | autophagy GFP signals [3] | cell viability of HepG2 [4]
N#Cc1c(NC(=O)c2cccc3ccccc23)sc2c1CCCC2 [JNK-IN-5A, N-(3-cyano-4,5,6,7-tetrahydrobenzo[b]thiophen-2-yl)-1-naphthamide] | localized in the nucleus | normal histological structures | no side effects | negative | significantly increased | –
N#Cc1c(NC(=O)c2cccc3ccccc23)sc2c1CCN(C(=O)Nc1ccccc1OC(F)(F)F)C2 [PKL-A159] | – | – | – | – | – | exceptionally low cell viability
